Data published in ChEMBL document CHEMBL1201862, “PubChem BioAssay data set” (2004).
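Cells were grown in 96-well plates and exposed to each compound for 48 hours at five concentrations; endpoints were interpolated linearly between bracketing concentrations, or set to the highest concentration if not reached. The concentration for 50% growth inhibition is given as GI50.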 Active and inactive are the calls of the source. Cut-off read from the data, not from the text of the source: active = GI50 up to about 1.1 µM and inactive = higher.

How the values were obtained:
Assay in all cases: NCI-60 cell line screen, 48 h
HL-60 = system: HL-60
MOLT-4 = system: MOLT-4
A498 = system: A498
786-0 = system: 786-0
HCT-116 = system: HCT-116
OVCAR-4 = system: OVCAR-4
TK-10 = system: TK-10
A549 = system: A549
RPMI-8226 = system: RPMI-8226
SN12C = system: SN12C
SW-620 = system: SW-620
LOX IMVI = system: LOX IMVI
EKVX = system: EKVX
HOP-92 = system: HOP-92
MDA-N = system: MDA-N
PC-3 = system: PC-3
M14 = system: M14
SNB-19 = system: SNB-19
SF-268 = system: SF-268
SR = system: SR

SMILES: CN(C)CCNc1ccc2ncn3c4ccc(O)cc4c(=O)c1c23
- GI50 (HL-60): 0.647 µM (active)
- GI50 (MOLT-4): 0.0258 µM (active)
- GI50 (A498): 0.745 µM (active)
- GI50 (786-0): 0.612 µM (active)
- GI50 (HCT-116): 0.272 µM (active)
- GI50 (OVCAR-4): 1.04 µM (active)
- GI50 (TK-10): 2.66 µM (inactive)
- GI50 (A549): 0.0661 µM (active)
- GI50 (RPMI-8226): 0.735 µM (active)
- GI50 (SN12C): 0.562 µM (active)
- GI50 (SW-620): 0.281 µM (active)
- GI50 (LOX IMVI): 0.543 µM (active)
- GI50 (EKVX): 5.22 µM (inactive)
- GI50 (HOP-92): 2.54 µM (inactive)
- GI50 (MDA-N): 2.88 µM (inactive)
- GI50 (PC-3): 1.42 µM (inactive)
- GI50 (M14): 1.63 µM (inactive)
- GI50 (SNB-19): 0.92 µM (active)
- GI50 (SF-268): 0.893 µM (active)

SMILES: NC1=C(Cl)C(=O)c2c(O)ccc(O)c2C1=O
- GI50 (HL-60): 2.55 µM (inactive)
- GI50 (MOLT-4): 6.98 µM (inactive)
- GI50 (A498): 14.1 µM (inactive)
- GI50 (786-0): 8.93 µM (inactive)
- GI50 (HCT-116): 2.47 µM (inactive)
- GI50 (OVCAR-4): 4.11 µM (inactive)
- GI50 (TK-10): 15.2 µM (inactive)
- GI50 (A549): 2.2 µM (inactive)
- GI50 (RPMI-8226): 4.75 µM (inactive)
- GI50 (SN12C): 3.28 µM (inactive)
- GI50 (SW-620): 3.15 µM (inactive)
- GI50 (LOX IMVI): 1.79 µM (inactive)
- GI50 (EKVX): 12 µM (inactive)
- GI50 (HOP-92): 12.1 µM (inactive)
- GI50 (MDA-N): 1.77 µM (inactive)
- GI50 (PC-3): 3.47 µM (inactive)
- GI50 (M14): 1.85 µM (inactive)
- GI50 (SNB-19): 3.89 µM (inactive)
- GI50 (SF-268): 3.83 µM (inactive)

SMILES: COc1ccc(C(SC2C(O)C(CO)OC2n2ccc(=O)[nH]c2=O)(c2ccccc2)c2ccc(OC)cc2)cc1 (stereo unspecified)
- GI50 (HL-60): 25.6 µM (inactive)
- GI50 (MOLT-4): 26.9 µM (inactive)
- GI50 (786-0): 16.3 µM (inactive)
- GI50 (HCT-116): 14.7 µM (inactive)
- GI50 (OVCAR-4): 19.7 µM (inactive)
- GI50 (TK-10): 25.4 µM (inactive)
- GI50 (A549): 16.4 µM (inactive)
- GI50 (RPMI-8226): 32.8 µM (inactive)
- GI50 (SN12C): 14.4 µM (inactive)
- GI50 (SW-620): 22.2 µM (inactive)
- GI50 (LOX IMVI): 16.9 µM (inactive)
- GI50 (EKVX): 17.1 µM (inactive)
- GI50 (HOP-92): 15.6 µM (inactive)
- GI50 (MDA-N): 9.66 µM (inactive)
- GI50 (PC-3): 14.9 µM (inactive)
- GI50 (M14): 11.3 µM (inactive)
- GI50 (SNB-19): 12.4 µM (inactive)
- GI50 (SF-268): 17.9 µM (inactive)

SMILES: COc1cccc2c(=O)c3c(O)c4cc(N(C)C)ccc4c(OC(C)=O)c3oc12
- GI50 (HL-60): 3.96 µM (inactive)
- GI50 (MOLT-4): 3.1 µM (inactive)
- GI50 (A498): 21 µM (inactive)
- GI50 (786-0): 11.7 µM (inactive)
- GI50 (HCT-116): 13.9 µM (inactive)
- GI50 (OVCAR-4): 13.5 µM (inactive)
- GI50 (TK-10): 15.3 µM (inactive)
- GI50 (A549): 26.1 µM (inactive)
- GI50 (RPMI-8226): 13.2 µM (inactive)
- GI50 (SN12C): 12.9 µM (inactive)
- GI50 (SW-620): 7.41 µM (inactive)
- GI50 (LOX IMVI): 12 µM (inactive)
- GI50 (EKVX): 12.5 µM (inactive)
- GI50 (HOP-92): 17.4 µM (inactive)
- GI50 (MDA-N): 13.7 µM (inactive)
- GI50 (PC-3): 17.6 µM (inactive)
- GI50 (M14): 9.98 µM (inactive)
- GI50 (SNB-19): 33.2 µM (inactive)
- GI50 (SF-268): 17 µM (inactive)

SMILES: CC(C)=NN/C(=N\c1ccc(Cl)cc1)NS(=O)(=O)c1ccc(C)cc1
- GI50 (HL-60): 97.5 µM (inactive)
- GI50 (MOLT-4): 41.5 µM (inactive)
- GI50 (A498): 33 µM (inactive)
- GI50 (786-0): 62.4 µM (inactive)
- GI50 (HCT-116): 76.4 µM (inactive)
- GI50 (OVCAR-4): 51.1 µM (inactive)
- GI50 (TK-10): 50.8 µM (inactive)
- GI50 (A549): 62.4 µM (inactive)
- GI50 (RPMI-8226): 44.2 µM (inactive)
- GI50 (SN12C): 84.5 µM (inactive)
- GI50 (SW-620): > 100 µM (inactive)
- GI50 (LOX IMVI): 87.7 µM (inactive)
- GI50 (EKVX): 52.6 µM (inactive)
- GI50 (HOP-92): 38.8 µM (inactive)
- GI50 (MDA-N): > 100 µM (inactive)
- GI50 (PC-3): 41.2 µM (inactive)
- GI50 (M14): > 100 µM (inactive)
- GI50 (SNB-19): > 100 µM (inactive)
- GI50 (SF-268): 60 µM (inactive)

SMILES: O=C(/C=C/c1ccccc1)CSc1nc[nH]n1
- GI50 (HL-60): 45.9 µM (inactive)
- GI50 (MOLT-4): 63.2 µM (inactive)
- GI50 (SR): 62.1 µM (inactive)
- GI50 (786-0): > 100 µM (inactive)
- GI50 (HCT-116): 33 µM (inactive)
- GI50 (OVCAR-4): > 100 µM (inactive)
- GI50 (TK-10): > 100 µM (inactive)
- GI50 (A549): > 100 µM (inactive)
- GI50 (RPMI-8226): 35.1 µM (inactive)
- GI50 (SN12C): > 100 µM (inactive)
- GI50 (SW-620): 65.5 µM (inactive)
- GI50 (EKVX): > 100 µM (inactive)
- GI50 (MDA-N): > 100 µM (inactive)
- GI50 (PC-3): > 100 µM (inactive)
- GI50 (M14): > 100 µM (inactive)
- GI50 (SNB-19): > 100 µM (inactive)
- GI50 (SF-268): > 100 µM (inactive)

SMILES: N=C(N)NCCNC(=N)N
- GI50 (HL-60): > 100 µM (inactive)
- GI50 (MOLT-4): > 100 µM (inactive)
- GI50 (A498): > 100 µM (inactive)
- GI50 (786-0): > 100 µM (inactive)
- GI50 (HCT-116): > 100 µM (inactive)
- GI50 (OVCAR-4): > 100 µM (inactive)
- GI50 (TK-10): > 100 µM (inactive)
- GI50 (A549): > 100 µM (inactive)
- GI50 (RPMI-8226): > 100 µM (inactive)
- GI50 (SN12C): 85.1 µM (inactive)
- GI50 (SW-620): > 100 µM (inactive)
- GI50 (LOX IMVI): > 100 µM (inactive)
- GI50 (EKVX): > 100 µM (inactive)
- GI50 (HOP-92): > 100 µM (inactive)
- GI50 (MDA-N): > 100 µM (inactive)
- GI50 (PC-3): > 100 µM (inactive)
- GI50 (M14): > 100 µM (inactive)
- GI50 (SNB-19): > 100 µM (inactive)
- GI50 (SF-268): > 100 µM (inactive)

SMILES: Cc1ccccc1/N=N/c1c(O)ccc2ccccc12
- GI50 (HL-60): > 100 µM (inactive)
- GI50 (MOLT-4): > 100 µM (inactive)
- GI50 (786-0): 48.9 µM (inactive)
- GI50 (HCT-116): 69.5 µM (inactive)
- GI50 (OVCAR-4): 70.5 µM (inactive)
- GI50 (TK-10): > 100 µM (inactive)
- GI50 (A549): 69.3 µM (inactive)
- GI50 (RPMI-8226): > 100 µM (inactive)
- GI50 (SN12C): > 100 µM (inactive)
- GI50 (SW-620): > 100 µM (inactive)
- GI50 (LOX IMVI): 40.5 µM (inactive)
- GI50 (EKVX): 47.6 µM (inactive)
- GI50 (HOP-92): > 100 µM (inactive)
- GI50 (MDA-N): > 100 µM (inactive)
- GI50 (PC-3): > 100 µM (inactive)
- GI50 (M14): > 100 µM (inactive)
- GI50 (SNB-19): > 100 µM (inactive)
- GI50 (SF-268): 62.4 µM (inactive)

SMILES: CCN(CC)CCCNc1ccc2nc(C)n3c4ccc(O)cc4c(=O)c1c23
- GI50 (HL-60): 1.61 µM (inactive)
- GI50 (MOLT-4): 0.301 µM (active)
- GI50 (A498): 11.9 µM (inactive)
- GI50 (786-0): 1.81 µM (inactive)
- GI50 (HCT-116): 0.713 µM (active)
- GI50 (OVCAR-4): 4.65 µM (inactive)
- GI50 (TK-10): 7.16 µM (inactive)
- GI50 (A549): 2.11 µM (inactive)
- GI50 (RPMI-8226): 1.9 µM (inactive)
- GI50 (SN12C): 5.15 µM (inactive)
- GI50 (SW-620): 0.957 µM (active)
- GI50 (LOX IMVI): 1.14 µM (inactive)
- GI50 (EKVX): 11.4 µM (inactive)
- GI50 (HOP-92): 2.89 µM (inactive)
- GI50 (MDA-N): 7.53 µM (inactive)
- GI50 (PC-3): 1.47 µM (inactive)
- GI50 (M14): 8.61 µM (inactive)
- GI50 (SNB-19): 6.7 µM (inactive)
- GI50 (SF-268): 1.96 µM (inactive)

SMILES: O=C(N/N=C/c1ccco1)c1cc(I)cc(I)c1O
- GI50 (HL-60): 10.5 µM (inactive)
- GI50 (MOLT-4): 26.3 µM (inactive)
- GI50 (A498): 12.9 µM (inactive)
- GI50 (786-0): 15 µM (inactive)
- GI50 (HCT-116): 23.5 µM (inactive)
- GI50 (OVCAR-4): 35.8 µM (inactive)
- GI50 (A549): 31.9 µM (inactive)
- GI50 (RPMI-8226): 15.2 µM (inactive)
- GI50 (SN12C): 9.06 µM (inactive)
- GI50 (SW-620): 22.2 µM (inactive)
- GI50 (LOX IMVI): 16.4 µM (inactive)
- GI50 (EKVX): 12.4 µM (inactive)
- GI50 (HOP-92): 15.6 µM (inactive)
- GI50 (MDA-N): 22.9 µM (inactive)
- GI50 (PC-3): 35.2 µM (inactive)
- GI50 (M14): 8.24 µM (inactive)
- GI50 (SNB-19): 32.2 µM (inactive)
- GI50 (SF-268): > 50 µM (inactive)

SMILES: Cn1cnc(C(N)=[Se])c1N
- GI50 (A498): 16.4 µM (inactive)
- GI50 (786-0): 2.13 µM (inactive)
- GI50 (HCT-116): 3.69 µM (inactive)
- GI50 (TK-10): 2.64 µM (inactive)
- GI50 (A549): 1.71 µM (inactive)
- GI50 (RPMI-8226): 2.94 µM (inactive)
- GI50 (SN12C): 2.29 µM (inactive)
- GI50 (SW-620): 4.19 µM (inactive)
- GI50 (LOX IMVI): 3.26 µM (inactive)
- GI50 (EKVX): 2.05 µM (inactive)
- GI50 (HOP-92): 6.56 µM (inactive)
- GI50 (MDA-N): 4.98 µM (inactive)
- GI50 (PC-3): 2.24 µM (inactive)
- GI50 (M14): 4.44 µM (inactive)
- GI50 (SNB-19): 1.29 µM (inactive)
- GI50 (SF-268): 1.95 µM (inactive)
